Several values for one entry are separate records, joined by “and”; a condition that tells them apart may be missing. Identical values can stand only once.
Assays:
[1] = system: Leishmania donovani; assay: Leishmania intramacrophage assay; type: functional, organism-based; conditions: for IC50: Leishmania donovani
[2] = microbe, parasite or virus in culture; conditions: Mycobacterium tuberculosis, 96 h, read-out: pIC50 (converted)
[3] = system: Mycobacterium tuberculosis; assay: Cornell M. t heat shock assay; type: functional, organism-based; conditions: for IC50: Mycobacterium tuberculosis
[4] = microbe, parasite or virus in culture; conditions: Mycobacterium tuberculosis, 72 h, read-out: pIC50 (converted)
[5] = target: Sialic acid-binding Ig-like lectin 9 (Homo sapiens, UniProt Q9Y336); assay: Hs-Siglec9 ALPHAscreen SOP 20170721
[6] = target: T1, Coenzyme A biosynthesis bifunctional protein CoaBC (Mycobacterium tuberculosis (strain ATCC 25618 / H37Rv), UniProt P9WNZ1); assay: Biomol Green assay for MtCoaBC inhibitor, OD650 read; type: functional
T1 sequence (P9WNZ1 whole entry): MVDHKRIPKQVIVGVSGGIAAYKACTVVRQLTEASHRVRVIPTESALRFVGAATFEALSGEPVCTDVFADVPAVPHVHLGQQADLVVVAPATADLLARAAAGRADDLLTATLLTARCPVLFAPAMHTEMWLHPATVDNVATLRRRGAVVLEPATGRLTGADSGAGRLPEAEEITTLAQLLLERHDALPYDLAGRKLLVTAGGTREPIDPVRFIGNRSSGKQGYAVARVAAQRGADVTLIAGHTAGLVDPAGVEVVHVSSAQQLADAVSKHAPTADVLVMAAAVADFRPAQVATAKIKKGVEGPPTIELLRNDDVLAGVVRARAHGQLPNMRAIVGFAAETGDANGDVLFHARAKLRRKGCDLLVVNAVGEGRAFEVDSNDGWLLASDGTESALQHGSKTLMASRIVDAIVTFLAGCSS

[7] = system: Plasmodium falciparum; assay: Calibr Malaria Delayed Death Assay SOP; type: functional, organism-based; conditions: for IC50: Plasmodium falciparum
[8] = system: Wolbachia pipientis; assay: Anti-Wolbachia Cell-Based Screen; type: functional; conditions: for IC50: Wolbachia pipientis
[9] = target: ClpP1P2 (Mycobacterium tuberculosis (strain ATCC 25618 / H37Rv), UniProt P9WPC3+P9WPC5); assay: in vitro assay to detect presence of AMC directly proportional to the activity of ClpP1P2. GHDDI collaboration.; type: functional
[10] = target: Tryptophan--tRNA ligase (Mycobacterium tuberculosis (strain ATCC 25618 / H37Rv), UniProt P9WFT3); assay: Biochemical assay for Mt-TrpRS; type: functional
[11] = In vitro enzyme assay to detect hydrolysis of chlorophenol red-beta-D-[…] directly proportional to the number of Toxoplasma stably expressing beta-galactosidase; type: functional, organism-based, Toxoplasma gondii
[12] = target: T2, Histidine--tRNA ligase (Leishmania infantum, UniProt A4I591); assay: Leishmania infantum Histidine tRNA synthetase (LdHisRS); type: functional
T2 sequence (A4I591 whole entry): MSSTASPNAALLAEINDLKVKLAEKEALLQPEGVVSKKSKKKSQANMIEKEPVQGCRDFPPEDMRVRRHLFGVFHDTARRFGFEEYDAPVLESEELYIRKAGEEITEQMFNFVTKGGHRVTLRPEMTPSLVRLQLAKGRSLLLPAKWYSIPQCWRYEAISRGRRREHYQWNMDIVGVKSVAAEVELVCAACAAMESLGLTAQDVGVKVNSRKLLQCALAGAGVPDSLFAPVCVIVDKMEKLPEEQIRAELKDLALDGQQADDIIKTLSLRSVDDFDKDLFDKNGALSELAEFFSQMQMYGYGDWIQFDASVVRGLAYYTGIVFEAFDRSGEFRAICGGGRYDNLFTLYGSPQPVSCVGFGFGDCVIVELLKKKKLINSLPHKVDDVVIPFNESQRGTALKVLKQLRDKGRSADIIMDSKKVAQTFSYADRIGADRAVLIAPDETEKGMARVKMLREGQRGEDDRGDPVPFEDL

[13] = target: Lysine--tRNA ligase (Plasmodium falciparum (isolate 3D7), UniProt Q8IDJ8); assay: Pf-KRS-1 (Lysyl-RNA Synthetase-1, KRS-1, cytosolic KRS) from Plasmodium falciparum. Inhibitor assay, 384 well plate, luminescence read.; type: functional
[14] = target: Polyketide synthase Pks13 (Mycobacterium tuberculosis (strain ATCC 25618 / H37Rv), UniProt I6X8D2); assay: Mycobacterium tuberculosis Polyketide synthase 13 Thioesterase (PKS13); type: functional

Cc1cc(=O)[nH]c(-n2nc(C3CC3)cc2N)n1
pIC50 [1]: < 4.3 and 4.677
IC50 [2]: 41.2 µM
IC50 [3]: 27.5 µM
IC50 [4]: 30.1 µM

Cc1cc(CNC(=O)c2ccno2)c(C)o1
IC50 [5]: > 30.2 µM

O=C(NCc1nc2ccccc2[nH]1)c1cc2n(n1)CCCO2
IC50 [5]: > 30.2 µM

CCNC(=O)c1cc2n(n1)CCCO2
IC50 [5]: > 30.2 µM

CCOC(=O)CNC(=O)c1cc2n(n1)CCCO2
IC50 [5]: > 30.2 µM

CCOC(=O)Cc1csc(NC(=O)c2cc3n(n2)CCCO3)n1
IC50 [5]: > 30.2 µM

CCS(=O)(=O)CCNC(=O)c1cc2n(n1)CCCO2
IC50 [5]: > 30.2 µM

Cc1cc(CNC(=O)c2cnoc2C)c(C)o1
IC50 [5]: > 30.2 µM

N#Cc1ccc2c(c1)CN(C(=O)c1nc[nH]n1)C2c1cnco1 (stereo unspecified)
IC50 [5]: > 30.2 µM

N#Cc1ccc2c(c1)CN(C(=O)C1CC=CC1)C2c1cnco1 (stereo unspecified)
IC50 [5]: > 30.2 µM

CC(C)NC(=O)N1CCC2(CC1)COc1ccccc1S(=O)(=O)N(C)C2
IC50 [5]: > 30.2 µM

CN1CC2(CCN(C(=O)C3CCC3)CC2)COc2ccccc2S1(=O)=O
IC50 [5]: > 30.2 µM

CCN1CC2(CCN(C(=O)N(C)C)CC2)COc2ccccc2S1(=O)=O
IC50 [5]: > 30.2 µM

CCn1ncc2c1C(COC)CN(Cc1cnn(C)c1)C2 (stereo unspecified)
IC50 [5]: > 30.2 µM

Cc1cc(CN2C[C@@H]3COC[C@]3(COCC(=O)N(C)C)C2)no1
IC50 [5]: > 30.2 µM

O=c1[nH]nc(-c2cccs2)c2sc(N3CCOCC3)nc12
IC50 [5]: > 30.2 µM

CC(C)NC(=O)C1CCN(c2nc3nc[nH]c(=O)c3s2)CC1
IC50 [5]: > 30.2 µM

CNC(=O)C1CCN(c2nc3nc[nH]c(=O)c3s2)CC1
IC50 [5]: > 30.2 µM

O=C(C1CCN(c2nc3nc[nH]c(=O)c3s2)CC1)N1CCCCC1
IC50 [5]: > 30.2 µM

O=C(NC1CC1)C1CCN(c2nc3nc[nH]c(=O)c3s2)CC1
IC50 [5]: > 30.2 µM

COC(=O)CC1CCN(C(=O)c2ccc(C)cc2)CC1
IC50 [5]: > 30.2 µM

COC(=O)CC1CCN(C(=O)c2ccc(-n3nnnc3C)cc2)CC1
IC50 [5]: > 30.2 µM

COC(=O)CC1CCN(C(=O)c2ccccc2-n2nnnc2C)CC1
IC50 [5]: > 30.2 µM

CCc1cc(=O)[nH]c(NC2CCN(S(=O)(=O)c3ccccc3)CC2)n1
IC50 [6]: > 30.2 µM
IC50 [3]: > 100 µM

CN[C@@H]1CCC[C@@H](Oc2ccccc2Oc2ccc(C)cc2)[C@@H]1O
pIC50 [1]: 5.128
IC50 [1]: 5.46 µM
pIC50 [7]: 6.476
IC50 [7]: 0.349 µM
IC50 [2]: > 50.1 µM
pIC50 [3]: 4.304
IC50 [3]: 89.2 µM
IC50 [4]: 35.8 µM

c1ccc(CCN2CCCC2c2cccc(Nc3nccs3)n2)cc1 (stereo unspecified)
pIC50 [8]: 5.678
IC50 [8]: 1.09 µM
IC50 [6]: > 30.2 µM
pIC50 [3]: 4.565
IC50 [3]: 38.9 µM

Cc1cnc(Nc2cccc(C3CCCN3Cc3cn(C)nc3C)n2)s1 (stereo unspecified)
pIC50 [8]: 5.174
IC50 [8]: 5.37 µM
IC50 [6]: > 30.2 µM
pIC50 [3]: 5.045 and 4.742

Cc1ccccc1CN1CCCC1c1cccc(Nc2nccs2)n1 (stereo unspecified)
IC50 [6]: > 30.2 µM
pIC50 [3]: 5.632
IC50 [3]: 1.93 µM

Cc1cccc(CN2CCCC2c2cccc(Nc3nccs3)n2)c1 (stereo unspecified)
pIC50 [8]: 5.856
IC50 [8]: 1.87 µM
pIC50 [7]: 5.988
IC50 [7]: 1.01 µM
pIC50 [3]: 5.755
IC50 [3]: 2.41 µM

Cc1ccc(Oc2c(F)cccc2OC[C@@H](N)CC(C)C)cc1
pIC50 [1]: 5.171
IC50 [1]: 12.4 µM
IC50 [2]: 25.5 µM
IC50 [3]: 25.1 µM
IC50 [4]: 23.4 µM

CC(C)C(NC(=O)c1cnc(N2CCOCC2)nc1)c1cccs1 (stereo unspecified)
IC50 [6]: > 30.2 µM
IC50 [2]: 48.9 µM
IC50 [3]: 48.2 µM
IC50 [4]: 44.9 µM

Fc1cccc(Nc2nc(N3CCCC3)nc3c2CNCC3)c1
pIC50 [1]: 5.271
IC50 [1]: 3.49 µM
IC50 [2]: 18.8 µM
IC50 [3]: 25.8 µM
IC50 [4]: 23.6 µM

CN(C)CCN(C)C(=O)Cn1cccc2cc(-c3ccc(F)cc3)nc1-2
IC50 [9]: > 100 µM
pIC50 [1]: 4.872
IC50 [1]: 9.3 µM
pIC50 [7]: 6.323
IC50 [7]: 0.489 µM
pIC50 [3]: 4.438
IC50 [3]: 42.9 µM

COc1cccc(CNCc2nc3ccccc3c(=O)[nH]2)c1
IC50 [3]: 67.4 µM
IC50 [10]: > 195 µM

CS(=O)(=O)N[C@@H]1CN(C(=O)c2cc3ccccc3s2)C[C@H]1O
IC50 [2]: > 50.1 µM
pIC50 [3]: 4.54
IC50 [3]: 24.6 µM
IC50 [4]: 25.4 µM
IC50 [10]: > 195 µM

CCN(CC)S(=O)(=O)N1CCCC1c1cccc(Nc2ncc(C)s2)n1 (stereo unspecified)
pIC50 [8]: 5.165
IC50 [8]: 8.99 µM
IC50 [3]: > 100 µM

CS(=O)(=O)N1CCCC1c1cccc(Nc2nccs2)n1 (stereo unspecified)
pIC50 [8]: 5.083
IC50 [8]: 9.08 µM
IC50 [3]: > 100 µM

Cc1ccc(Oc2cc(F)ccc2O[C@@H]2CCC[C@@H](N)[C@H]2O)cc1
pIC50 [1]: 4.961
IC50 [1]: 6.4 µM
pIC50 [7]: 6.291
IC50 [7]: 0.584 µM
IC50 [2]: 47.8 µM
pIC50 [3]: 4.493
IC50 [3]: 33.6 µM
IC50 [4]: 39.4 µM
IC50 ([11]; Toxoplasma gondii): 8.59 µM

COc1ccc(-n2cc(CCO)cn2)cc1C
IC50 [12]: 17.7 µM and 11.1 µM
IC50 [6]: > 30.2 µM
IC50 [13]: > 50.1 µM
IC50 [3]: 41.4 µM

Cc1nc(C2CCNCC2)cc(N(C)Cc2cc3cc(F)ccc3[nH]2)n1
pIC50 [1]: 4.976
IC50 [1]: 11.9 µM
pIC50 [7]: 6.017
IC50 [7]: 0.803 µM
IC50 [3]: 72.3 µM
pIC50 [11]: 5.24 and 4.835

O=C(CN1CCOC(CNc2cccnn2)C1)NCc1cccs1 (stereo unspecified)
IC50 [8]: > 10 µM
IC50 [3]: > 100 µM

Cc1nnc(NCc2ccccc2F)c(C#N)c1C
IC50 [12]: 16.9 µM and 23.1 µM
IC50 [3]: 78.6 µM

c1ccc2oc(CCCN3CCCCC3Cn3cncn3)nc2c1 (stereo unspecified)
IC50 [14]: > 100 µM
IC50 [3]: > 100 µM

CC(Cn1cccn1)NCc1csc(Cc2ccccc2)n1 (stereo unspecified)
IC50 [6]: > 30.2 µM
IC50 [3]: 12.7 µM

Cc1nn(C)c(C)c1CCn1cncc1-c1ccc2c(c1)CC(C)N2C.Cl (stereo unspecified)
IC50 [12]: 43.1 µM and 43 µM
IC50 [1]: > 50.1 µM
pIC50 [7]: 5.741
IC50 [7]: 1.72 µM
IC50 [3]: > 100 µM

CN1CC2(CCN(CC3CC3)CC2)COc2ccccc2S1(=O)=O
IC50 [5]: > 30.2 µM

Cc1nc(CN2C[C@@H]3COC[C@]3(COCC(=O)N(C)C)C2)cs1
IC50 [5]: > 30.2 µM

Cc1ccc(CN(CCCn2ccnc2)Cc2cccs2)s1
IC50 [2]: 25.9 µM
IC50 [3]: 19.9 µM
IC50 [4]: 42 µM
IC50 [10]: > 195 µM
